Data as given in patent US7618953B2, “Amorphous forms of risedronate monosodium” (Zentiva, a.s., priority 2004, dated 2009).
Where a name gives a salt, the structure may show the parent alone.

Tests used:
[1] = assay type: physicochemical; conditions: for time until a transparent solution was formed: 0.796 mmol in 100 ml stirred aqueous hydrochloric acid, pH 1.1, 40° C.
Protocol: Dissolution of Sodium Risedronate in Diluted Hydrochloric Acid
a) 0.273 g (0.796 mmol) of sodium risedronate pentahemihydrate (crystalline form A) according to WO 01/56983, having the water content 12.5%, was introduced into 100 ml of stirred aqueous solution of hydrochloric acid at pH 1.1 and temperature of 40° C. Within 30 seconds a transparent solution was formed.
b) 0.250 g (0,796 mmol) of semi-crystalline sodium risedronate according to Example 2 above, having the water content 3%, was introduced into 100 ml of stirred aqueous solution of hydrochloric acid at pH 1.1 and temperature of 40° C. Within less than 30 seconds a quite transparent solution was formed.

[2] = Water content after storage on the open air; assay type: physicochemical; conditions: after one month storage on the open air at laboratory temperature; 1.7% of water when prepared
Protocol: 10 g of crystalline form of risedronate pentahydrate (according to WO 2004/037252) was dried at 110° C. for 20 hours. 8.2 g of the semi-crystalline form of risedronate sodium was obtained, which was characterized with X-ray powder diffraction (FIG. 9), ^13C and ^31P Cp MAS NMR spectra (FIGS. 7 and 8) and IR spectra (FIG. 6). Thus prepared semi-crystalline risedronate contained 1.7% of water. After one month storage on the open air at laboratory temperature the content of water increased to 3%.

[3] = 0.200 g suspended in 2 ml water at 22° C., water added dropwise at 0.2 ml/min until transparent solution
physchem = conditions: 22 °C, water, thermodynamic from solid

Structure (SMILES)	time until a transparent solution was formed [1]	precipitation on further stirring under constant conditions ([1]; aqueous hydrochloric acid pH 1.1, 40° C., stirred for further 15 mins)	content of water after storage [2] [%]	total consumption of water for dissolution of the sample [3] [mL]	solubility (physchem) [mM]	time after formation of the transparent solution until a white suspension of poorly soluble risedronic acid started to precipitate ([1]; pH 1.1) [s]
O=P(O)(O)C(O)(Cc1cccnc1)P(=O)(O)O [Example 2, monosodium salt of 3-pyridyl-1-hydroxyethylidene-1,1-bisphosphonic acid]	less than 30 seconds	without any observable precipitation	3	2.5	255	
O.O.O.O.O.O=P([O-])(O)C(O)(Cc1cccnc1)P(=O)(O)O.O=P([O-])(O)C(O)(Cc1cccnc1)P(=O)(O)O.[Na+].[Na+] [sodium risedronate pentahemihydrate, reference compound]	≤ 30 s			3.5		≤ 20
